{"source": "patent US20080027140A1", "about": "“Combinations of Serotonin Reuptake Inhibitors and Imidazoline I 2 Agonists” (MERCK PATENT GMBH, priority 2004, published 2008)", "key": {"[1]": {"system": "extracellular 5-HT level in the frontal cortex", "test": "Microdialysis studies: extracellular 5-HT level in the frontal cortex of rats", "type": "in vivo"}, "mice": {"system": "mice", "test": "Marble burying test (animal model of anxiety states)", "type": "in vivo", "settings": "3 mg/kg subcutaneously each substance, individually or combined at the same dose; 30 minutes test; FIG. 3", "protocol": "A typical animal model of anxiety states is the “marble burying test” (for example Njung'e and Handley, Br J Pharmacol 1991, 104: 105-112), which has, in particular, specificity for obsessive-compulsive disorders and obsessive-compulsive spectrum disorders. The experimental device consists of a cube-shaped box open at the top in which 25 clear glass marbles are arranged at uniform separations on a 5 cm deep layer of sawdust. Mice are placed individually in the test box for 30 minutes. The number of marbles buried in the sawdust during the test duration of 30 minutes serves as a measure of anxiety. Untreated mice bury the most marbles in the sawdust, anxiolytics reduce the number of buried marbles."}, "rats": {"system": "rats", "test": "Forced swimming test (animal model of depression)", "type": "in vivo", "protocol": "A typical animal model of depression is the “forced swimming test” (R. D. Porsolt et al., Nature 1977; 266(5604): 730-732), which is carried out with rats. This model is based on the behaviour known as “behavioural despair”, which the animals show in a hopeless situation known to them: If the rats are placed in a water-filled vessel (usually for 15 minutes) from which they cannot escape, they cease their attempts to escape from the situation after a certain time and remain in immobility or make only the most necessary swimming movements. If the rats are subjected to this situation again the next day, they recognise the hopelessness of the situation and remain in immobility for the majority of the time, and the time which the animals spend in immobility (which is regarded as surrogate for depression) during the 5-minute test duration serves as a measure of the depression. Anti-depressants shorten this immobility time. Fluoxetine (5 mg/kg perorally) and 2-BFI (3 and 10 mg/kg perorally) are administered—individually or combined—either in accordance with a repeated acute scheme (fluoxetine 24 h, 5 h and 2 h; 2-BFI 24 h, 5 h and 1 h before commencement of the test) or in accordance with a subchronic scheme (fluoxetine or 2-BFI once daily for 7 days, on the final day fluoxetine 2 h and 2-BFI 1 h before commencement of the test)."}, "[2]": {"system": "extracellular level of serotonin (5-HT) in the brain", "settings": "fluoxetine alone, even at a relatively high dose; literature (Artigas et al.); cited from earlier work"}}, "note": "“Also recorded” adds a separate entry of the source.", "data": [{"smiles": "c1ccc2oc(C3=NCCN3)cc2c1", "note": "[2-BFI, 2-(2-benzofuranyl)-2-imidazoline]", "values": [{"measurement": "effect on the extracellular 5-HT level in the frontal cortex", "setting": "[1]; 2-BFI alone, 20 mg/kg subcutaneously, FIG. 1", "value": "no effect"}, {"measurement": "number of buried marbles compared with vehicle-treated mice", "setting": "mice", "value": "reduced the number of buried marbles only slightly"}, {"measurement": "immobility phase", "setting": "rats; repeated acute scheme, 2-BFI alone 3 and 10 mg/kg perorally, 24 h, 5 h and 1 h before test, FIG. 4", "value": "does not reduce the immobility phase"}, {"measurement": "immobility phase", "setting": "rats; subchronic scheme, once daily for 7 days, 2-BFI alone 3 and 10 mg/kg perorally, FIG. 5", "value": "Virtually identical effects"}]}, {"smiles": "CNCCC(Oc1ccc(C(F)(F)F)cc1)c1ccccc1", "note": "(stereo not drawn) [fluoxetine]", "values": [{"measurement": "effect on the extracellular 5-HT level", "setting": "[1]; fluoxetine alone, 10 mg/kg intraperitoneally, FIG. 2, 10 mg/kg", "value": "slightly raises; also recorded: only a slight increase"}, {"measurement": "number of buried marbles compared with vehicle-treated mice", "setting": "mice", "value": "reduced the number of buried marbles only slightly"}, {"measurement": "immobility phase", "setting": "rats; repeated acute scheme, fluoxetine alone 5 mg/kg perorally, 24 h, 5 h and 2 h before test, FIG. 4", "value": "only a negligible effect"}, {"measurement": "immobility phase", "setting": "rats; subchronic scheme, once daily for 7 days, fluoxetine alone 5 mg/kg perorally, FIG. 5", "value": "Virtually identical effects"}, {"measurement": "approximately three-fold increase of the extracellular 5-HT level", "setting": "[2]", "value": "cannot be achieved"}]}]}
